Results published in patent US10124012B2, “Method for treatment of hyperglycemia and hyperlipidemia” (priority 2016, dated 2018).

Legend:
Format in all cases: in vivo, C57BL/6J mice
[1] = system: high-fat diet-fed C57BL/6J mouse; experiment: Blood glucose levels and biochemical parameters in HFD-fed mice; conditions: for blood glucose levels: fasting, week 12, oral gavage once daily 4 weeks; for blood glucose levels / blood adiponectin levels / circulating free fatty acid (FFA) levels / circulating total cholesterol (TC) levels / circulating triglycerides (TG) levels / levels of blood insulin / levels of blood leptin: AnK 10, 20, 40, Feno 250, Metf 300 mg/kg/day; for blood adiponectin levels / circulating free fatty acid (FFA) levels / circulating total cholesterol (TC) levels / circulating triglycerides (TG) levels / levels of blood insulin / levels of blood leptin: oral gavage once daily 4 weeks
Protocol: Animal studies were performed and approved under the guidelines of the Institutional Animal Care and Use Committee in Taiwan (12 Mar. 2015). […] After acclimatization for one week, all of the mice were randomly assigned into a control (CON) group and a high-fat diet (HFD) group. For the following 12 weeks, the CON group (n=9) received a control diet or a low-fat diet (Diet 12450B, Research Diets, Inc., New Brunswick, N.J., USA), while the HFD group (n=54) received a high-fat diet (Diet 12451, Research Diets, New Brunswick, N.J., USA). […] After HFD feeding for 8 weeks, the HFD group was randomly subdivided into six groups (n=9 per group) receiving different treatments and fed on HFD. […] The HF+AnK1, HF+AnK2, and HF+AnK3 groups are collectively termed AnK-treated HFD groups in the following examples. The CON mice were administered vehicle. All treatments were administered via oral gavage once daily. After administration for 4 weeks, all mice were fasted 12 hours, and blood was collected from the retro-orbital sinus under ether anesthesia. At the end of the experiment, the mice were sacrificed via carbon dioxide inhalation. Liver, adipose tissue, and skeletal muscle were collected and immediately stored at −80° C. for target gene analysis. A portion of the blood samples obtained from the retro-orbital sinus of fasted mice were immediately used to measure blood glucose levels using Sidekick glucose analyzer (YSI 1500, YSI Incorporated, Yellow Springs, USA) according to the glucose oxidase method. Heparin (30 units/mL, Sigma) was added into other portions of the blood samples. Plasma samples for the following analysis were prepared from these blood samples via centrifugation at 1600 g for 15 minutes at 4° C., followed by plasma separation within 30 minutes. Blood levels of triglycerides (TG), total cholesterol (TC), and free fatty acids (FFA) were determined using commercial assay kits in accordance with manufacturer's directions (Triglycerides-E test, Cholesterol-E test and FFA-C test, Wako Pure Chemical, Osaka, Japan). Blood levels of insulin, leptin, and adiponectin were measured by enzyme-linked immunosorbent assay (mouse insulin ELISA kit, Mercodia, Uppsala, Sweden; mouse leptin ELISA kit, Morinaga, Yokohama, Japan; mouse adiponectin ELISA kit, Crystal Chem International, Downers Grove, Ill., USA).

DGAT2 = experiment: Liver mRNA by semi-quantitative RT-PCR: DGAT2; conditions: HFD-fed mice, oral gavage once daily 4 weeks, AnK 10, 20, 40, Feno 250, Metf 300 mg/kg/day, vs HF group
Text: (§1) The 4-week old male C57BL/6J mice (total amount n=63) were obtained from the National Laboratory Animal Center (Taipei, Taiwan). After acclimatization for one week, all of the mice were randomly assigned into a control (CON) group and a high-fat diet (HFD) group. […] After HFD feeding for 8 weeks, the HFD group was randomly subdivided into six groups (n=9 per group) receiving different treatments and fed on HFD. […] The HF+AnK1, HF+AnK2, and HF+AnK3 groups are collectively termed AnK-treated HFD groups in the following examples. The CON mice were administered vehicle. All treatments were administered via oral gavage once daily. After administration for 4 weeks, all mice were fasted 12 hours, and blood was collected from the retro-orbital sinus under ether anesthesia. […]
(§2) Total RNA from liver tissue of mice was isolated with a Trizol Reagent (Molecular Research Center, Inc., Cincinnati, Ohio, USA) according to the manufacturer's instructions. The integrity of the extracted total RNA was examined by 2% agarose gel electrophoresis, and the RNA concentration was determined by the ultraviolet (UV) light absorbency at 260 nm and 280 nm (Spectrophotometer U-2800A, Hitachi). […]
(§3) Levels of mRNA of target genes were quantified by semi-quantitative reverse transcription polymerase chain reaction (RT-PCR). […] PCR products were analyzed by 2% agarose gel and stained with ethidium bromide.

aP2 = experiment: Liver mRNA by semi-quantitative RT-PCR: aP2; conditions: HFD-fed mice, oral gavage once daily 4 weeks, AnK 10, 20, 40, Feno 250, Metf 300 mg/kg/day, vs HF group
Text: as §1, §2, §3

SREBP2 = experiment: Liver mRNA by semi-quantitative RT-PCR: SREBP2; conditions: HFD-fed mice, oral gavage once daily 4 weeks, AnK 10, 20, 40, Feno 250, Metf 300 mg/kg/day, vs HF group
Text: as §1, §2, §3

PPARα = experiment: Western blotting of hepatic PPARα; conditions: liver; HFD-fed mice; AnK 10, 20, 40, Feno 250, Metf 300 mg/kg/day; vs HF group
Text: as §1, with “anesthesia. At the end of the experiment, the mice were sacrificed via carbon dioxide inhalation.” for “anesthesia.”
About 0.1 g of liver tissue, skeletal muscle, or adipose tissue was used for the homogenate samples. […] The protein concentration in supernatant was determined with a BCA protein assay kit (Thermo Scientific, Rockford, Ill., USA). […] Immunoreactive bands were detected with ECL reagent kit (GE Healthcare BioSciences, Buckinghamshire, UK). The intensity of Western blot signals was analyzed using AlphaEase FC software (Alpha Innotech Corporation, Randburg, South Africa). […]

## C=C(CC[C@@H](C)[C@H]1CC[C@H]2C3=C(C(=O)C[C@]12C)[C@@]1(C)CC[C@@H](O)[C@](C)(O)[C@@H]1C[C@@H]3O)C(C)C(=O)O (stereo partly drawn) [AnK, 3α,4β,7β-trihydroxy-4α-methylergosta-8,24(28)-dien-11-on-25S-26-oic acid]
[1]; AnK 40 mg/kg body weight/day vs metformin 300 mg/kg/day
  glucose-lowering effect compared with metformin: comparable to that of metformin
[1]; AnK at 10, 20, and 40 mg/kg body weight/day, vs HF group
  lowering of blood glucose levels: 26.8-36.0%
[1]; AnK treatment (10, 20, 40 mg/kg/day), vs HF group
  decrease of circulating TG: 28.5-32.8%
[1]; AnK treatment vs fenofibrate 250 mg/kg/day
  TG-lowering effect compared with fenofibrate: comparable to the TG-lowering effect of fenofibrate
[1]; vs HF group
  blood glucose levels: significantly reduced
  blood adiponectin levels: markedly enhanced
  circulating free fatty acid (FFA) levels: decreased
  circulating total cholesterol (TC) levels: decreased
  circulating triglycerides (TG) levels: decreased
  levels of blood insulin: effectively reduced
  levels of blood leptin: effectively reduced
DGAT2
  mRNA levels of DGAT2: significantly decreased
aP2
  mRNA levels of aP2: significantly decreased
SREBP2
  mRNA levels of SREBP2: significantly decreased
PPARα
  PPARα expression levels (protein): significantly increased

## CN(C)C(=N)N=C(N)N [Metf, metformin, reference compound]
[1]; vs HF group
  blood glucose levels: significantly reduced
  blood adiponectin levels: markedly enhanced
  circulating free fatty acid (FFA) levels: decreased
  circulating total cholesterol (TC) levels: decreased
  circulating triglycerides (TG) levels: decreased
  levels of blood insulin: effectively reduced
  levels of blood leptin: effectively reduced
DGAT2
  mRNA levels of DGAT2: significantly decreased
aP2
  mRNA levels of aP2: significantly decreased
SREBP2
  mRNA levels of SREBP2: significantly decreased
PPARα
  PPARα expression levels (protein): significantly increased
